Experimental findings from patent publication US20110064661A1, “NON-RADIOACTIVE PHOSPHOLIPID COMPOUNDS, COMPOSITIONS, AND METHODS OF USE” (priority 2009, published 2011) are described below.

pIC50: −log10 of the molar value.

Assay [1] has as its system A549 cells. Kind of assay: Uptake and Retention Assay of 125I-CLR1404. The format is cell-based, human. The settings on record: 24 hours, 0.588-2.156 μM, serum free media. On the procedure: The Uptake and Retention Assay was preformed as described previously. Briefly, A549 human NSCLC cells were plated at a density of 150,000 cells/ml in 6-well plates.
Cells were then allowed to adhere overnight. All plates were then treated with the indicated mass of either ^125I-CLR1404 with or without ^127I-CLR1401 as indicated by the experimental parameters.
Cells were incubated in the presence of drug for 24 hrs prior to collection. At 24 hrs post treatment, the media was removed and the cells were washed once with 1 ml of ice cold 1×PBS+1% BSA. The cells were then removed from the plate by trypsinization with 1 ml of 1× Trypsin 1×PBS solution and split into 2 samples of 500 μl each. Both sets of sample were pelleted by centrifugation for 30 seconds at 2000×g at room temperature. The supernatant was removed and discarded.
One pellet for each sample set was resuspended in 200 μl of 1×PBS (Tube 1, Sample 1), and the other pellet was resuspened in 100% EtOH (Tube 2, Sample 1). A 100 μl sample from Tube 1 was taken for evaluation of DNA content in order to determine cell number (data was generated using absorbance at 260 nm in a microplate reader). A 10 μl sample from Tube 2 was taken for evaluation of radioactivity content using a gamma counter. […] All treatments were preformed in Serum Free media. […]

For assay [2], the system named is active Akt (pAkt, S473). The assay is described as follows: Inhibition of Akt activation (pAkt Ser473 sandwich ELISA) in A549 cells. The class given is cell-based. The settings on record: Homo sapiens. Here is the method: A549 cells, obtained from American Type Culture Collection (ATCC), are a human non-small cell lung cancer cell line. A549 cells have wild-type functional PTEN.
(§1) A549 and PC-3 cells were plated at a density of 200,000 cells per ml.
(§2) All treatments were preformed in triplicate.
(§3) A549 and PC-3 cells are treated with ^127I-CLR1401 for 24 hours. • 0, 3, 5, 10 μM of ^127I-CLR1401 • Protein was isolated from treated cells. • The level of activated Akt was determined by examining the phosphorylated (active) form at Ser473 by enzyme linked immunosorbent assay (ELISA). • PathScan Phospho-Akt1 (Ser473) Sandwich ELISA Kit (Cell Signaling #7160). • ELISA controls: • Negative Control: A549 and PC-3 cells treated with 50 μM LY294,002 for 24 hrs. LY294,002 is a specific cell permeable phosphatidylinositol 3-kinase (PI3K) inhibitor that inhibits the activation of Akt by affecting the amount of phosphatidylinositol(3,4,5) trisphosphate produced by PI3K. • Positive Control: A549 and PC-3 cells stimulated with 10 μg/ml Insulin for 24 hrs. • Negative Control: A549 in serum free media. • 1) The ELISA was preformed per the manufacturer's instructions. Briefly, 100 μg of protein from the cell lysates were incubated in the pre-coated 96-well plate overnight at 4° C. The wells were then washed 4 times with 1XWash Buffer (also provided). Then incubated with the primary Akt antibody for 2 hours at 37° C. with 5% CO2 in air. After the primary incubation the plate was then washed 4 times with 1XWash Buffer and incubated with the HRP-linked secondary antibody for 1 hour at 37° C. with 5% CO2 in air. The plate was then washed 4 times with 1× Wash Buffer and developed using the TMB substrate provided. TMB substrate (tetramethylbenzidine) is a colormetric substrate used in the ELISA assay. TMB (3,3″,5,5″-tetramethylbenzidine) is a chromogen that yields a blue color when oxidized with hydrogen peroxide (catalyzed by HRP) with major absorbances at 370 nm and 652 nm. The color then changes to yellow with the addition of sulfuric or phosphoric acid with maximum absorbance at 450 nm. it is used for the detection of target proteins that have been bound to an antibody that contains a Horseradish Peroxidase tag. • After the 10 minute incubation at 37° C. the reaction was stopped by the addition of stop buffer (also provided). The absorbance was then measured at 450 nm using a Synergy HT microplate reader (BioTek). Data are reported as absorbance at 450 nm.

Assay [3] relates to active Akt (pAkt, S473). The assay is described as follows: Inhibition of Akt activation (pAkt Ser473 sandwich ELISA) in PC-3 cells. The format is cell-based. The settings on record: Homo sapiens. Here is the method: PC-3 cells, obtained from American Type Culture Collection (ATCC), are a human prostate carcinoma cell line. PC-3 cells have a homozygous deletion of PTEN.
as §1, §2, §3

The test system of assay [4] is A549 cells. The assay is described as follows: Cell growth inhibition by MTT assay. The class given is cell-based, human. On the procedure: 2. Cell Growth Inhibition by ^127I-CLR1401. • 1) Growth inhibition induced by ^127I-CLR1401 was determined by MTT(3-(4,5-dimethylthiazol-2-yl)-2,5-diphenyl […] bromide) assay. MTT is a pale yellow substrate that is cleaved by living cells to yield a dark blue formazan product.
Briefly, A549 cells were plated at a density of 200,000 cells per well in a six well plate and allowed to adhere overnight.
The cells were then treated with varying concentrations of ^127I-CLR1401 (0.0078, 0.392, 0.784, 1.568, 3.137, 4.705, 7.84, 39.2, 78.4 μM) in triplicate and then collected for the MTT assay at the indicated time points. Cells were then incubated with 0.5 mg/ml MTT in 1×PBS for 3 hours at 37° C. with 5% CO2 in air.
Absorbance was measured at 540 nm using a Synergy HT microplate reader. The absorbance value at 540 nm is directly proportional to the number of viable cells present.

The mark [5] stands for this setting: 3 μM, 24 hours, read-out: Percent Inhibition of Akt.
The mark [6] stands for this setting: 5 μM, 24 hours, read-out: Percent Inhibition of Akt.
[7] abbreviates: 10 μM, 24 hours, read-out: Percent Inhibition of Akt.

For “18-(p-Iodophenyl)octadecyl phosphocholine [^125I-CLR1404]”, in the assay with A549 cells [1], the “uptake and retention of 125I-CLR1404 with increasing mass dose of 125I-CLR1404” value was “distinct increase in the amount of compound taken up and retained”.

Take `C[N+](C)(C)CCOP(=O)([O-])OCCCCCCCCCCCCCCCCCCc1ccc(I)cc1` [^127I-CLR1401, 18-(p-Iodophenyl)octadecyl phosphocholine]: the pIC50 in the assay with active Akt (pAkt, S473) [2] was 5.23; in the assay with active Akt (pAkt, S473) [3], 5.30; in the assay with A549 cells [4] (Homo sapiens, A549 cells, MTT, read-out: 50% inhibitory concentration for cell growth) it was 5.35. In addition, the inhibition at 3 µM with active Akt (pAkt, S473) [2] (setting [5]) turned out to be 26%; in the assay with active Akt (pAkt, S473) [3] (setting [5]), 21%. For the same compound, the inhibition at 5 µM in the assay on active Akt (pAkt, S473) [2] (setting [6]) was found to be 42%; in the assay on active Akt (pAkt, S473) [3] (setting [6]), 61%. The inhibition at 10 µM in the assay on active Akt (pAkt, S473) [2] (setting [7]) was 85%; in the assay on active Akt (pAkt, S473) [3] (setting [7]), 97%. In addition, in the assay on A549 cells [4] (low doses, FIG. 5A), the “effect on the growth of A549 cells” value is reported as “no significant effect”.
